Measurements published in US11198695B2, “Fused ring derivative having MGAT-2 inhibitory activity” (Shionogi & Co., Ltd., priority 2017, dated 2021).
pIC50: −log10 of the molar value.

These compounds were tested against recombinant human MGAT2 (Homo sapiens (Human), UniProt Q3SYC2) (assay: Measurement of human MGAT2 inhibitory activity). Conditions: read-out: IC50 (concentration exhibiting 50% enzyme inhibition), Table 53.
Type: biochemical
Summary of the method: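 RapidFire ESI-MS read-out of the diolein/diolein-d5 peak ratio gave % inhibition, with no-enzyme and full-enzyme wells as 100% and 0%. Reactions ran 1 h at room temperature at pH 7.4 (phosphate, 2 mmol/L DTT), using Flag-tagged human MGAT2 membranes from Sf9 cells and a substrate solution of 30 μmol/L 2-oleoylglycerol and 10 μmol/L oleoyl-CoA.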

Sequence of recombinant human MGAT2 (Q3SYC2 whole entry): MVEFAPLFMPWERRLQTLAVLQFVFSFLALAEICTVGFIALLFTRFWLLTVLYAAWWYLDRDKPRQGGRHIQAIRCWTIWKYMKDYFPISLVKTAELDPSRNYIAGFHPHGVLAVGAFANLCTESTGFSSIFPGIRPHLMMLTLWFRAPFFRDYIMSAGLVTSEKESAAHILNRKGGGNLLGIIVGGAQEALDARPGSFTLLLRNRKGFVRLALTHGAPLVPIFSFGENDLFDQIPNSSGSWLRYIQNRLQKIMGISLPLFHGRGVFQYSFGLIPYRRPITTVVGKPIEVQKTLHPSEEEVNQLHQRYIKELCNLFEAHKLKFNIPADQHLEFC

Compound | pIC50
Cc1ccc(-n2nc3c(c2C(=O)NCCS(N)(=O)=O)C(=O)N[C@@]2(CCc4cc(OCC(F)(F)F)ccc42)C3)nc1 [II-171] | 8.02
CS(=O)(=O)CC(=O)Nc1c2c(nn1-c1ccc(C#N)cn1)C[C@]1(CCc3cc(C4CC4)ccc31)NC2=O [II-172] | 8.84
CS(=O)(=O)CC(=O)Nc1c2c(nn1CCCOC(F)F)C[C@]1(CCc3cc(OCC(F)(F)F)ccc31)NC2=O [II-173] | 8.87
CS(=O)(=O)CC(=O)Nc1c2c(nn1-c1ccccc1)C[C@]1(CCc3cc(OCC(F)(F)F)ccc31)NC2=O [II-175] | 7.60
Cc1ccc(-n2nc3c(c2NC(=O)CS(C)(=O)=O)C(=O)N[C@](C)(c2ccc(Cl)cc2F)C3)nc1 [II-176] | 8.08
Cc1ccc(-n2nc3c(c2NC(=O)CS(C)(=O)=O)C(=O)N[C@](C)(c2ccc(N4CC(F)(F)C4)cc2F)C3)nc1 [II-177] | 8.23
N#Cc1ccc(-n2nc3c(c2C(=O)NCCF)C(=O)N[C@@]2(CCc4cc(OCC(F)(F)F)ccc42)C3)nc1 [II-178] | 7.22
N#Cc1ccc(-n2nc3c(c2C(=O)NCC2CC2)C(=O)N[C@@]2(CCc4cc(OCC(F)(F)F)ccc42)C3)nc1 [II-179] | 8.00
N#Cc1ccc(-n2nc3c(c2C(=O)NCCO)C(=O)N[C@@]2(CCc4cc(OCC(F)(F)F)ccc42)C3)nc1 [II-180] | 7.23
CNC(=O)CNC(=O)c1c2c(nn1-c1ccc(C#N)cn1)C[C@]1(CCc3cc(OCC(F)(F)F)ccc31)NC2=O [II-181] | 7.54
CS(C)(=O)=NCCNC(=O)c1c2c(nn1-c1ccc(C#N)cn1)C[C@]1(CCc3cc(OCC(F)(F)F)ccc31)NC2=O [II-182] | 6.32
N#CCCNC(=O)c1c2c(nn1-c1ccc(C#N)cn1)C[C@]1(CCc3cc(OCC(F)(F)F)ccc31)NC2=O [II-183] | 7.45
CC(F)(F)CNC(=O)c1c2c(nn1-c1ccc(C#N)cn1)C[C@]1(CCc3cc(OCC(F)(F)F)ccc31)NC2=O [II-184] | 8.39
N#Cc1ccc(-n2nc3c(c2C(=O)NCCSC(F)(F)F)C(=O)N[C@@]2(CCc4cc(OCC(F)(F)F)ccc42)C3)nc1 [II-185] | 7.55
CC1(CNC(=O)c2c3c(nn2-c2ccc(C#N)cn2)C[C@]2(CCc4cc(OCC(F)(F)F)ccc42)NC3=O)COC1 [II-186] | 8.53
N#Cc1ccc(-n2nc3c(c2C(=O)NCC2CCO2)C(=O)N[C@@]2(CCc4cc(OCC(F)(F)F)ccc42)C3)nc1 (stereo partly shown) [II-187] | 7.61
N#Cc1ccc(-n2nc3c(c2C(=O)NC2CC(F)(F)C2)C(=O)N[C@@]2(CCc4cc(OCC(F)(F)F)ccc42)C3)nc1 [II-188] | 8.30
N#Cc1ccc(-n2nc3c(c2C(=O)NC2CS(=O)(=O)C2)C(=O)N[C@@]2(CCc4cc(OCC(F)(F)F)ccc42)C3)nc1 [II-189] | 8.51
N#Cc1ccc(-n2nc3c(c2C(=O)NCC2(C#N)CC2)C(=O)N[C@@]2(CCc4cc(OCC(F)(F)F)ccc42)C3)nc1 [II-190] | 8.20
N#Cc1ccc(-n2nc3c(c2C(=O)NCC2(C(F)(F)F)CC2)C(=O)N[C@@]2(CCc4cc(OCC(F)(F)F)ccc42)C3)nc1 [II-191] | 7.04
N#Cc1ccc(-n2nc3c(c2C(=O)NCC2(C(F)F)CC2)C(=O)N[C@@]2(CCc4cc(OCC(F)(F)F)ccc42)C3)nc1 [II-192] | 8.46
CCO[C@H]1C[C@H](n2nc3c(c2NC(=O)CS(C)(=O)=O)C(=O)N[C@@]2(CCc4cc(OCC(F)(F)F)ccc42)C3)C1 [II-193] | 7.47

Compound | pIC50
CS(=O)(=O)CC(=O)Nc1c2c(nn1CCCOC(F)F)C[C@@]1(CCc3cc(OCC(F)(F)F)ccc31)NC2=O [II-194] | 8.81
Cc1ccc(-n2nc3c(c2C(=O)NCCC(F)(F)F)C(=O)N[C@@]2(CCc4cc(OCC(F)(F)F)ccc42)C3)nc1 [II-195] | 7.53
Cc1ccc(-n2nc3c(c2C(=O)NCC(N)=O)C(=O)N[C@@]2(CCc4cc(OCC(F)(F)F)ccc42)C3)nc1 [II-196] | 7.73
Cc1ccc(-n2nc3c(c2C(=O)NCC#N)C(=O)N[C@@]2(CCc4cc(OCC(F)(F)F)ccc42)C3)nc1 [II-197] | 8.17
Cc1ccc(-n2nc3c(c2C(=O)NCC2(CO)CC2)C(=O)N[C@@]2(CCc4cc(OCC(F)(F)F)ccc42)C3)nc1 [II-198] | 8.38
Cc1ccc(-n2nc3c(c2C(=O)NCCS(C)(=O)=O)C(=O)N[C@@]2(CCc4cc(OCC(F)(F)F)ccc42)C3)nc1 [II-199] | 7.13
Cc1ccc(-n2nc3c(c2C(=O)NCC2(O)CC2)C(=O)N[C@@]2(CCc4cc(OCC(F)(F)F)ccc42)C3)nc1 [II-200] | 8.64
Cc1ccc(-n2nc3c(c2C(=O)NCCS(N)(=O)=O)C(=O)N[C@@]2(CCOc4cc(OCC(F)(F)F)ccc42)C3)nc1 [II-204] | 7.65
Cc1cc(-n2nc3c(c2NC(=O)CS(C)(=O)=O)C(=O)N[C@@]2(CCc4cc(OCC(F)(F)F)ccc42)C3)nn1C [II-205] | 8.42
Cc1ccc(-n2nc3c(c2NC(=O)CS(C)(=O)=O)C(=O)N[C@](C)(c2ccc(OCC(F)F)cc2F)C3)nc1 [II-206] | 8.24
CCOc1ccc([C@]2(C)Cc3nn(-c4ccc(C)cn4)c(NC(=O)CS(C)(=O)=O)c3C(=O)N2)c(F)c1 [II-207] | 8.23
Cc1ccc(-n2nc3c(c2NC(=O)CS(C)(=O)=O)C(=O)N[C@](C)(c2ccc(OCC(C)(F)F)cc2F)C3)nc1 [II-208] | 8.51
Cc1ccc(-n2nc3c(c2C(=O)NCCS(N)(=O)=O)C(=O)N[C@@]2(CCc4cc(OCC(F)(F)F)ccc42)C3)cc1F [II-209] | 7.02
Cc1ccc(-n2nc3c(c2C(=O)NS(=O)(=O)c2ccccc2)C(=O)N[C@@]2(CCc4cc(OCC(F)(F)F)ccc42)C3)nc1 [II-210] | 7.05
COCCS(=O)(=O)NC(=O)c1c2c(nn1-c1ccc(C)cn1)C[C@]1(CCc3cc(OCC(F)(F)F)ccc31)NC2=O [II-211] | 7.48
Cc1ccc(-n2nc3c(c2C(=O)NS(=O)(=O)CCC(F)(F)F)C(=O)N[C@@]2(CCc4cc(OCC(F)(F)F)ccc42)C3)nc1 [II-212] | 7.33
Cc1ccc(-n2nc3c(c2C(=O)NS(=O)(=O)Cc2ccccc2)C(=O)N[C@@]2(CCc4cc(OCC(F)(F)F)ccc42)C3)nc1 [II-213] | 7.23
CS(=O)(=O)NC(=O)c1c2c(nn1-c1ccc(C#N)cn1)C[C@]1(CCc3cc(OCC(F)(F)F)ccc31)NC2=O [II-214] | 7.58
N#Cc1ccc(-n2nc3c(c2C(=O)NS(=O)(=O)c2ccccc2)C(=O)N[C@@]2(CCc4cc(OCC(F)(F)F)ccc42)C3)nc1 [II-215] | 7.11
COCCS(=O)(=O)NC(=O)c1c2c(nn1-c1ccc(C#N)cn1)C[C@]1(CCc3cc(OCC(F)(F)F)ccc31)NC2=O [II-216] | 6.37
N#Cc1ccc(-n2nc3c(c2C(=O)NS(=O)(=O)CCC(F)(F)F)C(=O)N[C@@]2(CCc4cc(OCC(F)(F)F)ccc42)C3)nc1 [II-217] | 7.16
N#Cc1ccc(-n2nc3c(c2C(=O)NS(=O)(=O)Cc2ccccc2)C(=O)N[C@@]2(CCc4cc(OCC(F)(F)F)ccc42)C3)nc1 [II-218] | 7.17

Compound | pIC50
Cc1ccc(-n2nc3c(c2C(=O)NCC#N)C(=O)N[C@@]2(CCc4cc(OCC(F)(F)F)ccc42)C3)cc1F [II-219] | 7.08
Cc1ccc(-n2nc3c(c2C(=O)NCC2(CO)CC2)C(=O)N[C@@]2(CCc4cc(OCC(F)(F)F)ccc42)C3)cc1F [II-220] | 8.09
Cc1ccc(-n2nc3c(c2C(=O)NCC2(O)CC2)C(=O)N[C@@]2(CCc4cc(OCC(F)(F)F)ccc42)C3)cc1F [II-221] | 8.16
Cc1ccc(-n2nc3c(c2C(=O)NCC2(C#N)CC2)C(=O)N[C@@]2(CCc4cc(OCC(F)(F)F)ccc42)C3)cc1F [II-222] | 7.27
Cc1ccc(-n2nc3c(c2C(=O)NS(C)(=O)=O)C(=O)N[C@@]2(CCc4cc(OCC(F)(F)F)ccc42)C3)cc1F [II-223] | 7.28
CS(=O)(=O)CC(=O)Nc1c2c(nn1-c1ccc(F)c(F)c1)C[C@]1(CCOc3cc(C4CC4)ccc31)NC2=O [II-224] | 8.66
Cc1ccc(-n2nc3c(c2C(=O)NS(=O)(=O)C2CC2)C(=O)N[C@@]2(CCc4cc(OCC(F)(F)F)ccc42)C3)cc1F [II-226] | 7.80
Cc1ccc(-n2nc3c(c2C(=O)NCC(F)(F)F)C(=O)N[C@@]2(CCOc4cc(OCC(F)(F)F)ccc42)C3)nc1 [II-227] | 7.02
Cc1ccc(-n2nc3c(c2C(=O)NCC#N)C(=O)N[C@@]2(CCOc4cc(OCC(F)(F)F)ccc42)C3)nc1 [II-228] | 7.43
Cc1ccc(-n2nc3c(c2C(=O)NCC(N)=O)C(=O)N[C@@]2(CCOc4cc(OCC(F)(F)F)ccc42)C3)nc1 [II-229] | 7.19
Cc1ccc(-n2nc3c(c2C(=O)NCC2(O)CC2)C(=O)N[C@@]2(CCOc4cc(OCC(F)(F)F)ccc42)C3)nc1 [II-230] | 7.85
Cc1ccc(-n2nc3c(c2C(=O)NCC2(C#N)CC2)C(=O)N[C@@]2(CCOc4cc(OCC(F)(F)F)ccc42)C3)nc1 [II-231] | 7.01
Cc1ccc(-n2nc3c(c2C(=O)NCC2(C(F)F)CC2)C(=O)N[C@@]2(CCOc4cc(OCC(F)(F)F)ccc42)C3)nc1 [II-232] | 7.17
Cc1ccc(-n2nc3c(c2NC(=O)CS(C)(=O)=O)C(=O)N[C@@]2(CCc4cc(C(F)(F)F)ccc42)C3)nn1 [II-234] | 8.26
Cc1cc(-n2nc3c(c2NC(=O)CS(C)(=O)=O)C(=O)N[C@@]2(CCOc4cc(C5CC5)ccc42)C3)no1 [II-235] | 8.93
CC(C)(F)COc1ccc2c(c1)CC[C@@]21Cc2nn(CCCOC(F)(F)F)c(NC(=O)CS(C)(=O)=O)c2C(=O)N1 [II-236] | 8.27
CS(=O)(=O)CC(=O)Nc1c2c(nn1CCCOC(F)(F)F)C[C@@]1(CCc3cc(OCC(F)(F)C(F)F)ccc31)NC2=O [II-237] | 8.46
Cc1ccc(-n2nc3c(c2C(=O)NS(C)(=O)=O)C(=O)N[C@@]2(CCc4cc(OCC(F)(F)F)ccc42)C3)nc1 [II-238] | 7.82
Cc1ccc(-n2nc3c(c2C(=O)NCC#N)C(=O)N[C@@](c2ccc(OCC(F)(F)F)cc2F)(C(F)(F)F)C3)nc1 [II-239] | 8.34
Cc1ccc(-n2nc3c(c2C(=O)NCC(F)(F)F)C(=O)N[C@@](c2ccc(OCC(F)(F)F)cc2F)(C(F)(F)F)C3)nc1 [II-240] | 7.84
